Reference: patent US20200215029A1, “APPLICATION OF AMD3100 IN PREPARATION OF DRUG FOR TREATING AND/OR PREVENTING CACHEXIA AND PHARMACEUTICAL COMPOSITION THEREOF” (SUN YAT-SEN UNIVERSITY, priority 2017, published 2020)

Key:
Nestin+ cells = settings: AMD3100 0.15 mg/kg body weight/day by Alzet slow-release pump, tumor-bearing mice
Method: 8-week-old C57 BL/6 male mice having no more than […] of weight were taken and divided into control group, cachexia group (LLC), and AMD3100 group (LLC+AMD3100).
Control group: no treatment.
Cachexia group: 4×10^6 LLC was transplanted subcutaneously into the groin of mice. After 7 days, mice were anesthetized with 100 μL of 10% chloral hydrate, and Alzet slow release pumps (model: 1004) were implanted subcutaneously on the back of mice. The normal saline was contained in the pump.
AMDd3100 group: 4×10^6 LLC was transplanted subcutaneously into the groin of mice. After 7 days, mice were anesthetized with 100 μL of 10% chloral hydrate, and an Alzet slow-release pump (model: 1004) was implanted subcutaneously on its back, and AMD3100 was contained in the pump. The use amount of mice AMD3100 was 0.15 mg/kg weight/day. After 14 days of installation of the slow-release pump, the mice were killed, and the muscle and fat tissue sections were taken for immunofluorescence staining, or RNA reverse transcription for fluorescence quantitative PCR was carried out by extracting RNA reverse transcription to detect the expression of Nestin.

[1] = test system: muscle and fat-derived Nestin+ cells; assay: Transwell migration of mouse Nestin+ cells promoted by Cxcl12; assay type: cell-based; settings: 1 μmol/ml Cxcl12 under the Transwell chamber (8 μm pore), 24 hours, versus control without Cxcl12
Method: The Corning Transwell chamber (8 μm pore size) was placed on a 24-well plate, and muscle and fat-derived Nestin+ cells (see example 1) cultured in vitro were inoculated in the Transwell chamber with 2×10^4 cells/well, and cultured in a 5% CO2 and 37° C. incubator. Each well was added with 500 μl of DMEM/low sugar under the Transwell chamber. The experimental group contained 1 μmol/ml Cxcl12 factors, while Cxcl12 factors were not added in control group. After 24 hours, the chamber was taken out, the cells inside the chamber were wiped out with a cotton swab, and the chamber was washed gently and immobilized and rinsed twice with anhydrous alcohol; the chambers in various groups were marked, and erected on the abandoned well plate, and crystal violet dye solution was added into each well for incubate at room temperature for 15 min; excessive staining solution was washed away. The quantity of migrated cells in each group was measured under the inverted microscope. Five fields (400 times) were randomly selected to calculate the quantity of migrated cells in each group under the microscope with 3 repeated wells in each group. The average value of the results was calculated. It can be seen from FIG. 6 that Cxcl 12 can promote the migration of mouse Nestin+ cells.

Molecule | migration of Nestin+ cells from muscles and fats toward tumor (Nestin+ cells) | migration of mouse Nestin+ cells (quantity of migrated cells) [1] | migration of mouse Nestin+ cells (quantity of migrated cells) ([1]; listed as Cxcl12)
c1cc(CN2CCCNCCNCCCNCC2)ccc1CN1CCCNCCNCCCNCC1 [AMD3100, 1,1′-[1,4-phenylenebis(methylene)]-di-1,4,8,11-tetraazacyclotetradecane] | successfully inhibit | – | –
Cxcl 12: chemokine Cxcl12 factor added under the Transwell chamber; highly expressed in mouse tumor | – | promote | promoted
